Holding throughout (format): functional
Test [1] concerns Mus musculus. In words: Percent of tumor growth inhibition ratio (TGIR)of the compound administered intravenously at dose 100 ug/kg on day 1, 5, 9 in subcutaneously (murine fibrosarcoma Meth A cells) infected in BDF1 mice on day 10.
For test [2], the system named is Mus musculus. In words: Percent of tumor growth inhibition ratio (TGIR)of the compound administered intravenously at dose 100 ug/kg on day 1, 5, 9 in subcutaneously (murine fibrosarcoma Meth A cells) infected in BDF1 mice on day 13.
Test [3] has as its system Mus musculus. In words: Percent of tumor growth inhibition ratio (TGIR)of the compound administered intravenously at dose 100 ug/kg on day 1, 5, 9 in subcutaneously (murine fibrosarcoma Meth A cells) infected in BDF1 mice on day 16.
Test [4] relates to Mus musculus. In words: Percent of tumor growth inhibition ratio (TGIR)of the compound administered intravenously at dose 100 ug/kg on day 1, 5, 9 in subcutaneously (murine fibrosarcoma Meth A cells) infected in BDF1 mice on day 20.
For test [5], the system named is Mus musculus. In words: Percent of tumor growth inhibition ratio (TGIR)of the compound administered intravenously at dose 100 ug/kg(on day 1, 5, 9) in subcutaneously infected BDF1 mice on day 12.
For test [6], the system named is Mus musculus. In words: Percent of tumor growth inhibition ratio (TGIR)of the compound administered intravenously at dose 100 ug/kg(on day 1, 5, 9) in subcutaneously infected BDF1 mice on day 16.
Test [7] deals with Mus musculus. In words: Percent of tumor growth inhibition ratio (TGIR)of the compound administered intravenously at dose 100 ug/kg(on day 1, 5, 9) in subcutaneously infected BDF1 mice on day 9.
Test [8] concerns Mus musculus. In words: Percent of tumor growth inhibition ratio (TGIR)of the compound administered intravenously at dose 100 ug/kg(on day 1, 5, 9) in subcutaneously infected BDF1 mice on day 20.
For test [9], the system named is Mus musculus. In words: Percent of tumor growth inhibition ratio (TGIR)of the compound administered intravenously at dose 100 ug/kg(on day 7, 11,15) in subcutaneously infected BDF1 mice on day 11.
For test [10], the system named is Mus musculus. In words: Percent of tumor growth inhibition ratio (TGIR)of the compound administered intravenously at dose 100 ug/kg(on day 7, 11,15) in subcutaneously infected BDF1 mice on day 14.
The test system of test [11] is Mus musculus. In words: Percent of tumor growth inhibition ratio (TGIR)of the compound administered intravenously at dose 100 ug/kg(on day 7, 11,15) in subcutaneously infected BDF1 mice on day 18.
Test [12] relates to Mus musculus. In words: Percent of tumor growth inhibition ratio (TGIR)of the compound administered intravenously at dose 100 ug/kg(on day 7, 11,15) in subcutaneously infected BDF1 mice on day 22.
For test [13], the system named is Mus musculus. In words: Percent of tumor growth inhibition ratio (TGIR)of the compound administered intravenously at dose 5 mg/kg (on day 1,5,9) in subcutaneously infected BDF1 mice on day 20. The conditions noted are these: route intravenous.
Test [14] has as its system Mus musculus. In words: Percent of tumor growth inhibition ratio (TGIR)of the compound administered intravenously at dose 5 mg/kg (on day 10, 14, 18 ) in subcutaneously infected BDF1 mice on day 12. The following applies: route intravenous.
The test system of test [15] is Mus musculus. In words: Percent of tumor growth inhibition ratio (TGIR)of the compound administered intravenously at dose 5 mg/kg (on day 10, 14, 18 ) in subcutaneously infected BDF1 mice on day 16. The conditions noted are these: route intravenous.
Test [16] has as its system Mus musculus. In words: Percent of tumor growth inhibition ratio (TGIR)of the compound administered intravenously at dose 5 mg/kg (on day1,5,9) in subcutaneously infected BDF1 mice on day 16. The conditions noted are these: route intravenous.
For test [17], the system named is Mus musculus. In words: Percent of tumor growth inhibition ratio (TGIR)of the compound administered intravenously at dose 5 mg/kg (on day10, 14, 18 ) in subcutaneously infected BDF1 mice on day 20. The conditions noted are these: route intravenous.
For test [18], the system named is Mus musculus. In words: Percent of tumor growth inhibition ratio (TGIR)of the compound administered intravenously at dose 100 ug/kg(on day 7, 11,15) in subcutaneously infected BDF1 mice on day 16.
Test [19] relates to Mus musculus. In words: Percent of tumor growth inhibition ratio (TGIR)of the compound administered intraperitoneally at dose 5 mg/kg (on day 7, 11,15) in subcutaneously infected BDF1 mice on day 16. The following applies: route subcutaneous.
The test system of test [20] is Mus musculus. In words: Percent of tumor growth inhibition ratio (TGIR)of the compound administered intraperitoneally at dose 5 mg/kg (on day 7, 11,15) in subcutaneously infected BDF1 mice on day 9. The conditions noted are these: route subcutaneous.
For test [21], the system named is Mus musculus. In words: Percent of tumor growth inhibition ratio (TGIR)of the compound administered intraperitoneally at dose 5 mg/kg (on day 1) in subcutaneously infected BDF1 mice on day 10. The conditions noted are these: route subcutaneous.
For test [22], the system named is Mus musculus. In words: Percent of tumor growth inhibition ratio (TGIR)of the compound administered intraperitoneally at dose 100 ug/kg(on day 1) in subcutaneously infected BDF1 mice on day 12.
Test [23] concerns Mus musculus. In words: Percent of tumor growth inhibition ratio (TGIR)of the compound administered intraperitoneally at dose 100 ug/kg(on day 1) in subcutaneously infected BDF1 mice on day 20.
Test [24] deals with Mus musculus. In words: Percent of tumor growth inhibition ratio (TGIR)of the compound administered intraperitoneally at dose 100 ug/kg(on day 1) in subcutaneously infected BDF1 mice on day 13.
Test [25] has as its system Mus musculus. In words: Percent of tumor growth inhibition ratio (TGIR)of the compound administered intravenously at dose 5 mg/kg (on day 1) in subcutaneously infected BDF1 mice on day 14. The following applies: route intravenous.
For test [26], the system named is Mus musculus. In words: Percent of tumor growth inhibition ratio (TGIR)of the compound administered intravenously at dose 5 mg/kg (on day 1) in subcutaneously infected BDF1 mice on day 18. The conditions noted are these: route intravenous.
Test [27] deals with Mus musculus. In words: Percent of tumor growth inhibition ratio (TGIR)of the compound administered intravenously at dose 5 mg/kg (on day 1) in subcutaneously infected BDF1 mice on day 20. The following applies: route intravenous.
Test [28] has as its system Mus musculus. In words: Percent of tumor growth inhibition ratio (TGIR)of the compound administered intravenously at dose 5 mg/kg (on day 1) in subcutaneously infected BDF1 mice on day 11. The conditions noted are these: route intravenous.
In test [29] the test system is Mus musculus. In words: Percent of tumor growth inhibition ratio (TGIR)of the compound administered intravenously at dose 5 mg/kg (on day 1) in subcutaneously infected BDF1 mice on day 22. The following applies: route intravenous.
The test system of test [30] is Mus musculus. In words: Percent of tumor growth inhibition ratio (TGIR)of the compound administered intravenously at dose 5 mg/kg (on day 1,5,9) in subcutaneously infected BDF1 mice on day 8. The conditions noted are these: route intravenous.
Test [31] deals with Mus musculus. In words: Percent of tumor growth inhibition ratio (TGIR)of the compound administered intravenously at dose 5 mg/kg (on day 1,5,9) in subcutaneously infected BDF1 mice on day 12. The conditions noted are these: route intravenous.

SMILES strings stand for the structures.

For `CCCCCCCCCCCCCCC[C@@H](O)[C@H](CO[C@H]1O[C@@H](CO)[C@H](O)[C@H](O)[C@@H]1O)NC(=O)CCCCCCCCCCCCC` (stereo in doubt; form 2), the TGIR in the test with Mus musculus [1] is 45.2%; in the test on Mus musculus [2], 45%; in the test with Mus musculus [3], 29.2%; in the test on Mus musculus [4] it was 7%; in the test on Mus musculus [5] it was 2.7%; in the test on Mus musculus [6] it was 1.4%. The values for the TGIR in the test with Mus musculus [7] and in the test with Mus musculus [8] were -28% and -7.6%, respectively.

For `CCCCCCCCCCCCCCC[C@@H](O)[C@H](CO[C@H]1O[C@@H](CO)[C@H](O)[C@H](O)[C@@H]1O)NC(=O)CCCCCCCCCCCCC` (stereo in doubt; form 1), the TGIR was 26.9% in the test on Mus musculus [1]; 33.1% with Mus musculus [2]; 22.1% in the test with Mus musculus [3]; 3.9% in the test with Mus musculus [4]; 38% in the test on Mus musculus [5]; 35% in the test with Mus musculus [6]. Besides, the TGIR was found to be 29% with Mus musculus [7] and 28.3% in the test on Mus musculus [8].

With `CCCCCCCCCCCCCC(=O)N[C@H](CO[C@H]1O[C@@H](CO)[C@H](O)[C@H](O)[C@@H]1O)[C@@H](O)CCCCCCCCCCCCC`, the TGIR with Mus musculus [9] is 55.9%; in the test with Mus musculus [10] it was 52.6%; in the test with Mus musculus [11], 42.2%; in the test on Mus musculus [12] it was 40.1%.

Consider `CCCCCCCCCCCCCCC[C@@H](O)[C@H](CO[C@H]1O[C@@H](CO)[C@H](O)[C@H](O)[C@@H]1O)NC(=O)CCCCCCCCCCCCC` (stereo in doubt; form 3), for which the TGIR came to 45.6% with Mus musculus [1]; 41.5% in the test on Mus musculus [2]; 28.9% with Mus musculus [3]; 21.3% with Mus musculus [4]; 45.2% in the test with Mus musculus [5]; 26.8% in the test with Mus musculus [6]. Besides, the TGIR in the test with Mus musculus [7] worked out at 35.3%; in the test with Mus musculus [8] it was 4.2%.

`CCCCCCCCCCCCCCCCCCCCCCCCCC(=O)N[C@@H](CO[C@H]1O[C@H](CO)[C@H](O)[C@H](O)[C@H]1O)[C@H](O)[C@H](O)CCCCCCCCCCCCCC` [RGI-7000]: the TGIR with Mus musculus [9] was determined as 41.1%; in the test on Mus musculus [10], 50.9%; in the test with Mus musculus [11], 51.1%; with Mus musculus [12], 40.2%.

In the case of `CCCCCCCCCCCCCCC[C@@H](O)[C@H](CO[C@H]1O[C@@H](CO)[C@H](O)[C@H](O)[C@@H]1O)NC(=O)CCCCCCCCCCCCC` (stereo in doubt; form 4), the TGIR in the test with Mus musculus [1] was found to be 69%; in the test on Mus musculus [2] it was 68.1%; with Mus musculus [3], 58.1%; with Mus musculus [4] it was 36.7%; in the test on Mus musculus [5], 62%; in the test on Mus musculus [6], 64.8%. Besides, the TGIR is 59.5% in the test on Mus musculus [7] and 54% in the test on Mus musculus [8].

In the case of `CO[C@@]12[C@H](COC(N)=O)C3=C(C(=O)C(C)=C(N)C3=O)N1C[C@@H]1N[C@@H]12` [MITOMYCIN], the TGIR with Mus musculus [13] came to 83.2%; in the test on Mus musculus [14], 38.8%; in the test on Mus musculus [15] it was 52.8%; in the test with Mus musculus [16] it was 86%; in the test with Mus musculus [17], 68.1%; in the test on Mus musculus [18], 80%. For the same compound, the TGIR stood at 59.7% with Mus musculus [19]; 35.2% in the test with Mus musculus [20]; 80.1% with Mus musculus [21]; 53.9% with Mus musculus [22]; 48.6% in the test on Mus musculus [23]; 85.1% in the test with Mus musculus [24]. Moreover, the TGIR with Mus musculus [25] worked out at 29.7%; with Mus musculus [26], 51.2%; in the test on Mus musculus [27], 75.1%; in the test with Mus musculus [28], 8.6%; in the test on Mus musculus [29], 60%; in the test on Mus musculus [30] it was 90%. In addition, the TGIR in the test with Mus musculus [31] is listed as 89.7%.

The values are drawn from ChEMBL document CHEMBL1128864, “Antitumor activities of -, -monogalactosylceramides and four diastereomers of an -galactosylceramide” (1995).
